Source: PubChem BioAssay (NCI)
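The compound was tested at five concentrations on cells cultured in 96-well plates, with a 48-hour exposure period. Here, GI50 denotes the concentration required for 50% inhibition of growth. TGI is the concentration that stops growth completely.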

Tests used:
Assay in all cases: DTP human tumour cell line panel, 48 h
NCI-H460 lung = test system: NCI-H460 lung
OVCAR-8 ovarian = test system: OVCAR-8 ovarian
SF-295 CNS = test system: SF-295 CNS
DU-145 prostate = test system: DU-145 prostate
K-562 leukemia = test system: K-562 leukemia
UO-31 renal = test system: UO-31 renal
BT-549 breast = test system: BT-549 breast
MDA-MB-468 breast = test system: MDA-MB-468 breast
EKVX NSCLC = test system: EKVX NSCLC
HOP-62 NSCLC = test system: HOP-62 NSCLC
COLO 205 colon = test system: COLO 205 colon
UACC-62 melanoma = test system: UACC-62 melanoma
M14 melanoma = test system: M14 melanoma
T-47D breast = test system: T-47D breast
SN12C renal = test system: SN12C renal
HCT-15 colon = test system: HCT-15 colon
HS 578T breast = test system: HS 578T breast
SNB-19 CNS = test system: SNB-19 CNS
PC-3 prostate = test system: PC-3 prostate
NCI-H23 lung = test system: NCI-H23 lung
U251 CNS = test system: U251 CNS
LOX IMVI melanoma = test system: LOX IMVI melanoma
SR leukemia = test system: SR leukemia
OVCAR-4 ovarian = test system: OVCAR-4 ovarian
MDA-MB-231 breast = test system: MDA-MB-231 breast
MOLT-4 leukemia = test system: MOLT-4 leukemia
OVCAR-3 ovarian = test system: OVCAR-3 ovarian
UACC-257 melanoma = test system: UACC-257 melanoma
MALME-3M melanoma = test system: MALME-3M melanoma
HCC-2998 colon = test system: HCC-2998 colon
A549 NSCLC = test system: A549 NSCLC
NCI-H226 lung = test system: NCI-H226 lung
SK-MEL-28 melanoma = test system: SK-MEL-28 melanoma
SW-620 colon = test system: SW-620 colon
SF-268 CNS = test system: SF-268 CNS
RXF 393 renal = test system: RXF 393 renal
SK-MEL-2 melanoma = test system: SK-MEL-2 melanoma
NCI-H522 lung = test system: NCI-H522 lung
A498 renal = test system: A498 renal
HT29 colon = test system: HT29 colon
RPMI-8226 leukemia = test system: RPMI-8226 leukemia
HL-60(TB) leukemia = test system: HL-60(TB) leukemia
ACHN renal = test system: ACHN renal
KM12 colon = test system: KM12 colon
SK-OV-3 ovarian = test system: SK-OV-3 ovarian
786-0 renal = test system: 786-0 renal
TK-10 renal = test system: TK-10 renal
NCI/ADR-RES ovarian = test system: NCI/ADR-RES ovarian
CAKI-1 renal = test system: CAKI-1 renal
CCRF-CEM leukemia = test system: CCRF-CEM leukemia
MDA-MB-435 = test system: MDA-MB-435
MCF7 breast = test system: MCF7 breast
SK-MEL-5 melanoma = test system: SK-MEL-5 melanoma
OVCAR-5 ovarian = test system: OVCAR-5 ovarian
IGROV1 ovarian = test system: IGROV1 ovarian
SF-539 CNS = test system: SF-539 CNS
HCT-116 colon = test system: HCT-116 colon

`COc1ccc(C(=O)/C=C/c2cccnc2)cc1S(N)(=O)=O` gave a GI50 (NCI-H460 lung) of 9.17 µM, a TGI (NCI-H460 lung) of 44.9 µM and a GI50 (OVCAR-8 ovarian) of 15.1 µM. The TGI (OVCAR-8 ovarian) was 35.6 µM, the GI50 (SF-295 CNS) was 12.8 µM and the TGI (SF-295 CNS) was 25.2 µM. For the same compound, the GI50 (DU-145 prostate) was 11.2 µM, the TGI (DU-145 prostate) was 22.6 µM and the GI50 (K-562 leukemia) was 2.92 µM. It also gave a TGI (K-562 leukemia) of 20.5 µM, a GI50 (UO-31 renal) of 6.05 µM and a TGI (UO-31 renal) of 18.5 µM. For the same compound, the GI50 (BT-549 breast) was 12.9 µM, the TGI (BT-549 breast) was 25.4 µM and the GI50 (MDA-MB-468 breast) was 7.1 µM. The TGI (MDA-MB-468 breast) was 20.1 µM, the GI50 (EKVX NSCLC) was 11.9 µM and the TGI (EKVX NSCLC) was 24.2 µM. For the same compound, the GI50 (HOP-62 NSCLC) was 15.6 µM, the TGI (HOP-62 NSCLC) was 33 µM and the GI50 (COLO 205 colon) was 13.7 µM. The TGI (COLO 205 colon) was 29.8 µM, the GI50 (UACC-62 melanoma) was 12.8 µM and the TGI (UACC-62 melanoma) was 24.7 µM. For the same compound, the GI50 (M14 melanoma) was 14.3 µM, the TGI (M14 melanoma) was 29 µM and the GI50 (T-47D breast) was 8.86 µM. For the same compound, the TGI (T-47D breast) was 25.6 µM, the GI50 (SN12C renal) was 7.37 µM and the TGI (SN12C renal) was 18.8 µM. The GI50 (HCT-15 colon) was 4.18 µM, the TGI (HCT-15 colon) was 16.7 µM and the GI50 (HS 578T breast) was 21.1 µM. For the same compound, the TGI (HS 578T breast) was 65.6 µM, the GI50 (SNB-19 CNS) was 13.4 µM and the TGI (SNB-19 CNS) was 25.4 µM. For the same compound, the GI50 (PC-3 prostate) was 16.5 µM, the TGI (PC-3 prostate) was 33.2 µM and the GI50 (NCI-H23 lung) was 12 µM. The TGI (NCI-H23 lung) was 24.1 µM, the GI50 (U251 CNS) was 7.44 µM and the TGI (U251 CNS) was 26.7 µM. The GI50 (LOX IMVI melanoma) was 4.63 µM, the TGI (LOX IMVI melanoma) was 16.1 µM and the GI50 (SR leukemia) was 1.83 µM. The TGI (SR leukemia) was 6.68 µM, the GI50 (OVCAR-4 ovarian) was 16.3 µM and the TGI (OVCAR-4 ovarian) was 36 µM. It also gave a GI50 (MDA-MB-231 breast) of 13.4 µM, a TGI (MDA-MB-231 breast) of 25.5 µM and a GI50 (MOLT-4 leukemia) of 3.5 µM. For the same compound, the TGI (MOLT-4 leukemia) was 15.1 µM, the GI50 (OVCAR-3 ovarian) was 10.3 µM and the TGI (OVCAR-3 ovarian) was 21.6 µM. The GI50 (UACC-257 melanoma) was 15.7 µM, the TGI (UACC-257 melanoma) was 32.2 µM and the GI50 (MALME-3M melanoma) was 14.2 µM. It also gave a TGI (MALME-3M melanoma) of 27.1 µM, a GI50 (HCC-2998 colon) of 13.9 µM and a TGI (HCC-2998 colon) of 26.1 µM. It also gave a GI50 (A549 NSCLC) of 13.8 µM, a TGI (A549 NSCLC) of 33.9 µM and a GI50 (NCI-H226 lung) of 14.4 µM. For the same compound, the TGI (NCI-H226 lung) was 32.3 µM, the GI50 (SK-MEL-28 melanoma) was 14.9 µM and the TGI (SK-MEL-28 melanoma) was 27.5 µM. The GI50 (SW-620 colon) was 6.38 µM, the TGI (SW-620 colon) was 29.5 µM and the GI50 (SF-268 CNS) was 13.6 µM. For the same compound, the TGI (SF-268 CNS) was 31.6 µM, the GI50 (RXF 393 renal) was 12.3 µM and the TGI (RXF 393 renal) was 24.7 µM. The GI50 (SK-MEL-2 melanoma) was 19.4 µM, the TGI (SK-MEL-2 melanoma) was 49.7 µM and the GI50 (NCI-H522 lung) was 10.5 µM. For the same compound, the TGI (NCI-H522 lung) was 24.1 µM, the GI50 (A498 renal) was 21.7 µM and the TGI (A498 renal) was 53.6 µM. The GI50 (HT29 colon) was 5.49 µM, the TGI (HT29 colon) was 21.2 µM and the GI50 (RPMI-8226 leukemia) was 9.08 µM. The TGI (RPMI-8226 leukemia) was 28.2 µM, the GI50 (HL-60(TB) leukemia) was 11 µM and the TGI (HL-60(TB) leukemia) was 32.7 µM. For the same compound, the GI50 (ACHN renal) was 13.5 µM, the TGI (ACHN renal) was 25.5 µM and the GI50 (KM12 colon) was 3.8 µM. It also gave a TGI (KM12 colon) of 14.4 µM, a GI50 (SK-OV-3 ovarian) of 16.7 µM and a TGI (SK-OV-3 ovarian) of 31.1 µM. For the same compound, the GI50 (786-0 renal) was 11.2 µM, the TGI (786-0 renal) was 24.1 µM and the GI50 (TK-10 renal) was 13.9 µM. For the same compound, the TGI (TK-10 renal) was 26.6 µM, the GI50 (NCI/ADR-RES ovarian) was 23.4 µM and the TGI (NCI/ADR-RES ovarian) was 90.2 µM. It also gave a GI50 (CAKI-1 renal) of 12.7 µM, a TGI (CAKI-1 renal) of 24.9 µM and a GI50 (CCRF-CEM leukemia) of 12.6 µM. For the same compound, the TGI (CCRF-CEM leukemia) was 33.2 µM, the GI50 (MDA-MB-435) was 14.4 µM and the TGI (MDA-MB-435) was 31.1 µM. The GI50 (MCF7 breast) was 4.87 µM, the TGI (MCF7 breast) was 18.5 µM and the GI50 (SK-MEL-5 melanoma) was 14.8 µM. For the same compound, the TGI (SK-MEL-5 melanoma) was 27.3 µM, the GI50 (OVCAR-5 ovarian) was 11.9 µM and the TGI (OVCAR-5 ovarian) was 23.5 µM. The GI50 (IGROV1 ovarian) was 12.4 µM, the TGI (IGROV1 ovarian) was 24.7 µM and the GI50 (SF-539 CNS) was 4.32 µM. For the same compound, the TGI (SF-539 CNS) was 15.7 µM, the GI50 (HCT-116 colon) was 3.18 µM and the TGI (HCT-116 colon) was 11.7 µM.
